Measured values published in article PMC12367851, “In vitro CB1 receptor activity of halogenated indazole synthetic cannabinoid receptor agonists” (Archives of Toxicology, 2025).
pEC50: −log10 of the molar value. Like-named read-outs stand apart in the source and are kept apart here.

How the values were obtained:
[1] = target: human CB1 receptor (Homo sapiens, UniProt P21554); assay: AequoScreen CB1 assay (intracellular Ca2+ release, CHO-K1 cells, apoaequorin/Gα16); details: for Emax: CHO-K1, read-out: Efficacy (% of JWH-018) Emax; for Efficacy (Emax) Mean Diff: Brown-Forsythe and Welch ANOVA; for fold more potent than ADB-BUTINACA: EC50 ratio vs non-halogenated analog ADB-BUTINACA; for fold difference of each other (potency): brominated SCRAs with pent-4-enyl, butyl and pentyl tails
Sequence of human CB1 receptor (P21554 whole entry): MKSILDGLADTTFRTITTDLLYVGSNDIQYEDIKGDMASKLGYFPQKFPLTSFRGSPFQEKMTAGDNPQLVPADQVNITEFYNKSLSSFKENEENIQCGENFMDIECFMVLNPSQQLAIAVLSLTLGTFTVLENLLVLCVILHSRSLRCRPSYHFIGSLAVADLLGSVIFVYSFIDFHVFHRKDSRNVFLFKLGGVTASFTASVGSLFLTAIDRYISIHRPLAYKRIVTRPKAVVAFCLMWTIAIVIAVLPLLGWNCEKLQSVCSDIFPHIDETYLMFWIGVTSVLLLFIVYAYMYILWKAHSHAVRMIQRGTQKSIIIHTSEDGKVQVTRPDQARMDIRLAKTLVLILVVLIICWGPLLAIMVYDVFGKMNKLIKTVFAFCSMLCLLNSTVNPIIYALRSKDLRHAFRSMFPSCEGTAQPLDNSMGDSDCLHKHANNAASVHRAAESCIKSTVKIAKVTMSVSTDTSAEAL

[2] = target: CB1 receptor; set-up: method as in Deventer et al. [2023b]; details: AequoScreen / Ca2+ release assay, ref Deventer et al. [2023b], cited from earlier work; for pEC50: read-out: EC50
[3] = target: CB1 receptor; details: β-arrestin 2 recruitment, cited from earlier work; for pEC50: read-out: EC50
[4] = Compound 1 vs Compound 2 = ADB-5’Cl-BUTINACA
[5] = Compound 1 vs Compound 2 = ADB-BUTINACA
[6] = Compound 1 vs Compound 2 = MDMB-5’F-BUTINACA
[7] = Compound 1 vs Compound 2 = ADB-4en-5’Br-PINACA
[8] = Compound 1 vs Compound 2 = MDMB-5’Br-BUTINACA
[9] = Compound 1 vs Compound 2 = MDMB-4en-5’Br-PINACA (also printed MDMB-5’Br-4en-PINACA)
[10] = Compound 1 vs Compound 2 = ADB-5’Br-BUTINACA
[11] = Compound 1 vs Compound 2 = MMB-5’Cl-BUTINACA
[12] = Compound 1 vs Compound 2 = MDMB-BUTINACA
[13] = Compound 1 vs Compound 2 = MDMB-5’Cl-BUTINACA

CCCCn1nc(C(=O)NC(C(N)=O)C(C)(C)C)c2ccccc21 (stereo not shown) [ADB-BUTINACA, reference compound]
pEC50 [1]: 7.67 | Emax [1]: 126% | pEC50 [2]: 7.94 | pEC50 ([3]; ref Sparkes et al. [2022]): 8.11

CCCCn1nc(C(=O)NC(C(N)=O)C(C)(C)C)c2cc(F)ccc21 (stereo not shown) [ADB-5′F-BUTINACA]
pEC50 [1]: 7.84 | Emax [1]: 113% | Efficacy (Emax) Mean Diff [1, 4]: 0.36 | Efficacy (Emax) Mean Diff [1, 5]: -12.47 | Efficacy (Emax) Mean Diff [1, 6]: 1.89 | fold more potent than ADB-BUTINACA [1]: 1.5 fold | pEC50 [2]: 7.74 | pEC50 ([3]; ref Deventer et al. [2023b]): 7.54

CCCCn1nc(C(=O)NC(C(N)=O)C(C)(C)C)c2cc(Br)ccc21 (stereo not shown) [ADB-5′Br-BUTINACA, N-[1-amino-3,3-dimethyl-1-oxobutan-2-yl]−5-bromo-1-butyl-1H-indazole-3-carboxamide]
pEC50 [1]: 7.74 | Emax [1]: 110% | Efficacy (Emax) Mean Diff [1, 7]: -1.26 | Efficacy (Emax) Mean Diff ([1]; Compound 1 vs Compound 2 = ADB-5’Br-FUBINACA): -2.30 | Efficacy (Emax) Mean Diff ([1]; Compound 1 vs Compound 2 = ADB-5’Br-PINACA): 1.84 | Efficacy (Emax) Mean Diff [1, 4]: -2.84 | Efficacy (Emax) Mean Diff ([1]; Compound 1 vs Compound 2 = ADB-5’F-BUTINACA): -3.19 | Efficacy (Emax) Mean Diff [1, 5]: -15.66 | Efficacy (Emax) Mean Diff [1, 8]: -3.82 | fold more potent than ADB-BUTINACA [1]: 1.2 fold | fold difference of each other (potency) [1]: ≤ 1.4 fold | pEC50 [2]: 7.90 | pEC50 ([3]; ref Deventer et al. [2023b]): 7.09

CC(C)(C)[C@H](NC(=O)c1n[nH]c2ccccc12)C(N)=O [ADB-INACA, reference compound]
EC50 [2]: did not reach saturation | EC50 ([3]; ref Deventer et al. [2023b]): did not reach saturation

C=CCCCn1nc(C(=O)NC(C(N)=O)C(C)(C)C)c2cc(Br)ccc21 (stereo not shown) [ADB-4en-5′Br-PINACA, N-(1-amino-3,3-dimethyl-1-oxobutan-2-yl)−5-bromo-1-(pent-4-en-1-yl)−1H-indazole-3-carboxamide]
pEC50 [1]: 7.85 | Emax [1]: 111% | Efficacy (Emax) Mean Diff [1, 9]: -8.94 | fold difference of each other (potency) [1]: ≤ 1.4 fold

CCCCCn1nc(C(=O)NC(C(N)=O)C(C)(C)C)c2cc(Br)ccc21 (stereo not shown) [ADB-5′Br-PINACA, N-(1-amino-3,3-dimethyl-1-oxobutan-2-yl)−5-bromo-1-pentyl-1H-indazole-3-carboxamide]
pEC50 [1]: 7.70 | Emax [1]: 108% | Efficacy (Emax) Mean Diff [1, 7]: -3.10 | fold difference of each other (potency) [1]: ≤ 1.4 fold

CCCCn1nc(C(=O)NC(C(N)=O)C(C)C)c2cc(Br)ccc21 (stereo not shown) [AB-5′Br-BUTINACA]
pEC50 [1]: 7.35 | Emax [1]: 115% | Efficacy (Emax) Mean Diff ([1]; Compound 1 vs Compound 2 = AB-5’Cl-BUTINACA): 2.92 | Efficacy (Emax) Mean Diff ([1]; Compound 1 vs Compound 2 = AB-5’F-BUTINACA): 7.90 | Efficacy (Emax) Mean Diff [1, 10]: 5.08 | Efficacy (Emax) Mean Diff [1, 8]: 1.26 | Efficacy (Emax) Mean Diff ([1]; Compound 1 vs Compound 2 = MMB-5’Br-BUTINACA): 9.47

CCCCn1nc(C(=O)NC(C(=O)OC)C(C)(C)C)c2ccccc21 (stereo not shown) [MDMB-BUTINACA, reference compound]
pEC50 [1]: 8.05 | Emax [1]: 121%

COC(=O)C(NC(=O)c1n[nH]c2ccc(Br)cc12)C(C)(C)C (stereo not shown) [MDMB-5′Br-INACA, methyl 2-[5-bromo-1H-indazole-3-carboxamido]−3,3-dimethylbutanoate]
pEC50 [1]: 5.66 | Emax [1]: 110% | Efficacy (Emax) Mean Diff ([1]; Compound 1 vs Compound 2 = MDMB-INACA): -2.31 | fold weaker in potency than JWH-018 ([1]; EC50 ratio vs JWH-018): 100 fold | fold more potent than MDMB-INACA ([1]; EC50 ratio, tail-less SCRAs): 1.7 fold

CCCCn1nc(C(=O)NC(C(=O)OC)C(C)C)c2cc(Br)ccc21 (stereo not shown) [MMB-5′Br-BUTINACA]
pEC50 [1]: 6.59 | Emax [1]: 105% | Efficacy (Emax) Mean Diff [1, 10]: -4.38 | Efficacy (Emax) Mean Diff [1, 11]: -3.81 | Efficacy (Emax) Mean Diff ([1]; Compound 1 vs Compound 2 = MMB-5’F-BUTINACA): -1.32

CCCCn1nc(C(=O)NC(C(=O)OC)C(C)(C)C)c2cc(Cl)ccc21 (stereo not shown) [MDMB-5′Cl-BUTINACA]
pEC50 [1]: 7.97 | Emax [1]: 110% | Efficacy (Emax) Mean Diff [1, 12]: -11.32

CCCCn1nc(C(=O)NC(C(=O)OC)C(C)C)c2cc(Cl)ccc21 (stereo not shown) [MMB-5′Cl-BUTINACA]
pEC50 [1]: 6.83 | Emax [1]: 109% | Efficacy (Emax) Mean Diff [1, 4]: -3.40 | Efficacy (Emax) Mean Diff [1, 13]: -0.60

CCCCn1nc(C(=O)NC(C(=O)OC)C(C)(C)C)c2cc(Br)ccc21 (stereo not shown) [MDMB-5′Br-BUTINACA]
pEC50 [1]: 7.37 | Emax [1]: 114% | Efficacy (Emax) Mean Diff [1, 9]: -6.38 | Efficacy (Emax) Mean Diff [1, 13]: 3.79 | Efficacy (Emax) Mean Diff [1, 6]: 2.52 | Efficacy (Emax) Mean Diff [1, 12]: -7.53 | fold less potent than MDMB-BUTINACA ([1]; EC50 ratio vs non-halogenated analog MDMB-BUTINACA): 4.8 fold | fold difference of each other (potency) [1]: ≤ 1.4 fold

C=CCCCn1nc(C(=O)NC(C(=O)OC)C(C)(C)C)c2ccccc21 (stereo not shown) [MDMB-4en-PINACA, reference compound]
pEC50 [1]: 7.75 | Emax [1]: 109%

CCCCn1nc(C(=O)NC(C(N)=O)C(C)C)c2cc(Cl)ccc21 (stereo not shown) [AB-5′Cl-BUTINACA]
pEC50 [1]: 7.24 | Emax [1]: 112% | Efficacy (Emax) Mean Diff [1, 4]: -0.67 | Efficacy (Emax) Mean Diff [1, 13]: 2.14 | Efficacy (Emax) Mean Diff [1, 11]: 2.74
